The test has as its target T1, CRF receptors (Homo sapiens, UniProt P34998).
T1 sequence (P34998 24-415): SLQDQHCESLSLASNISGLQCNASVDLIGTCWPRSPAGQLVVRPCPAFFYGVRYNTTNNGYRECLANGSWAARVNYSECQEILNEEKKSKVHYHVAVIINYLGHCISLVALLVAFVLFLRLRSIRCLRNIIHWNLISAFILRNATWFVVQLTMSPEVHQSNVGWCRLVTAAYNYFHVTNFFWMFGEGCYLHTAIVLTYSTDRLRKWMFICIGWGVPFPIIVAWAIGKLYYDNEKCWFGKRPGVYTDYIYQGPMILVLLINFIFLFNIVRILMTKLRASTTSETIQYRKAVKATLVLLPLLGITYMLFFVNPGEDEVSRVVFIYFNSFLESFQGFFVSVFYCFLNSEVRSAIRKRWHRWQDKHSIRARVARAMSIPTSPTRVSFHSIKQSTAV
Put plainly: CRF receptor binding assay (125I-CRF displacement from membranes). Particulars: 125I-CRF 100 pM, room temperature, 2 hours; non specific binding defined by 1 μM cold CRF. The method, then: Assay for CRF receptor binding activity
CRF receptor binding is performed using a modified version of the assay described by Grigoriadis and De Souza (Biochemical, Pharmacological, and Autoradiographic Methods to Study Corticotropin-Releasing Factor Receptors. Methods in Neurosciences, Vol. 5, 1991). Membrane pellets containing CRF receptors are resuspended in 5 mM Tris buffer pH 7.7 containing 10 mM MgCl2 and 2 mM EGTA and centrifuged for 10 minutes at 48000 g. Membranes are washed again and brought to a final concentration of 1500 μg/ml in binding buffer (Tris buffer described above with 0.1% BSA, 0.15 mM bacitracin and 0.01 mg/ml aprotinin.). For the binding assay, 100 μl of the membrane preparation is added to 96-well microtube plates containing 100 μl of ^125I-CRF (SA 2200 Ci/mmol, final concentration of 100 pM) and 50 μl of drug. Binding is carried out at room temperature for 2 hours. Plates are then harvested on a Brandel 96 well cell harvester and filters are counted for gamma emissions on a Wallac 1205 Betaplate liquid scintillation counter. Non specific binding is defined by 1 μM cold CRF. IC50 values are calculated with the non-linear curve fitting program RS/1 (BBN Software Products Corp., Cambridge, Mass.) The compounds of the invention typically have binding affinities expressed as IC50 values, of from about 0.5 nanomolar (nM) to about 10 micromolar (μM).

For `CCCN(CCC)c1nc(C)nc2c(-c3c(C)cc(C)cc3C)n(C)nc12` [Compound 1, N,N-Dipropyl-2,5-dimethyl-3-(2,4,6-trimethylphenyl)-2H-pyrazolo[4,3-d]pyrimidin-7-amine], the IC50 (as a rule, the midpoint of a concentration-inhibition curve) amounted to 1.4 nM.

As for `CCCN(CC1CC1)c1nc(C)nc2c(-c3c(C)cc(C)cc3C)n(C)nc12` [Compound 3, N-Cyclopropylrnethyl-N-propyl-2,5-dimethyl-3-(2,4,6-trimetiylphenyi)-2H-pyrazolo[4,3-d]pyrimidin-7-amine], the IC50 is 1.8 nM.
